# Laboratory results from patent US4322555A, “Nonaprenylamine derivatives” (priority 1980, dated 1982).
# Counter-ions that a name gives are not always drawn. Like-named read-outs stand apart in the source and are kept apart here.
# Assays:
# [1] = tested on: serum interferon; design: species or system mice; settings: mouse, in vivo
# [2] = tested on: vaccinia virus (DIE strain); type: in vivo, vaccinia virus (DIE strain) in ICR female mice; settings: 50 mg/kg i.p. on the day just before inoculation; ICR female mice; lesions counted 8th day
# [3] = Toxicity (acute toxicity, 50% lethal dose); settings: mouse, in vivo, ddY male mice
# [4] = ip, read-out: 50% Lethal dose, intraperitoneally administered
# [5] = iv, read-out: 50% Lethal dose, intravenously administered
SMILES,Serum interferon (Plaque inhibition) [1],Prevention from vaccinia infection (Inhibition of tail lesion) [2],"LD50 [3, 4]","LD50 [3, 5]"
CC(C)=CCCC(C)=CCCC(C)=CCCC(C)=CCCC(C)=CCCC(C)=CCCC(C)=CCCC(C)=CCCC(C)=CCN(C)Cc1ccccc1 [N-methyl-N-benzylsolanesylamine hydrochloride],44.5%,17.5%,> 500 mg/kg,550 mg/kg
CC(C)=CCCC(C)=CCCC(C)=CCCC(C)=CCCC(C)=CCCC(C)=CCCC(C)=CCCC(C)=CCCC(C)=CCNCc1ccccc1 [N-benzylsolanesylamine hydrochloride],31.5%,74.7%,,152 mg/kg
CC(C)=CCCC(C)=CCCC(C)=CCCC(C)=CCCC(C)=CCCC(C)=CCCC(C)=CCCC(C)=CCCC(C)=CCNCCc1ccccc1 [N-phenethylsolanesylamine hydrochloride],19.1%,30.8%,> 500 mg/kg,250 mg/kg
CC(C)=CCCC(C)=CCCC(C)=CCCC(C)=CCCC(C)=CCCC(C)=CCCC(C)=CCCC(C)=CCCC(C)=CCN(C)c1ccccc1 [N-methyl-N-phenylsolanesylamine],24.1%,26.8%,> 500 mg/kg,> 500 mg/kg
